Source: patent publication US20220162191A1, “SMALL MOLECULE MODULATORS OF IL-17” (LEO PHARMA A/S, priority 2019, published 2022)

Target: T1, human IL-17AA (Homo sapiens, UniProt Q16552)
T1 construct: host or cells: HEK (human embryonic kidney) cells
T1 sequence (Q16552 24-155) 1: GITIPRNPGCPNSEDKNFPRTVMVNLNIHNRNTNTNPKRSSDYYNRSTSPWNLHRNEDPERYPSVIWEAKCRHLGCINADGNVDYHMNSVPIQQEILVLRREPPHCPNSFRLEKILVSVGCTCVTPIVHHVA
T1 sequence (Q16552 24-155) 2: T1 sequence (Q16552 24-155) 1
Test: IL-8 release assay in human epithelial keratinocytes adult (HEKa)
Format: cell-based
Settings: 3 ng/ml human IL-17AA + 10 ng/ml human TNFalpha, 68-72 h, IL-8 by HTRF, read-out: Rel EC50 L-8 release assay
In short: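 Adult human keratinocytes in Epilife with HKGS minus hydrocortisone, treated with compound then stimulated with final 3 ng/ml HEK-derived human IL-17AA plus 10 ng/ml TNF-alpha for 68–72 h at 37 °C; TNF-alpha alone defines 100% inhibition. Secreted IL-8 by HTRF; relative IC50 and Emax from four-parameter fits.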

| EC50 | SMILES |
| --- | --- |
| > 1 µM | Cn1cnnc1-c1ccc(NC(=O)C(Cc2cc(-c3ccc(O)c(C(=O)N4CCC4)c3)ccc2Cl)NC(=O)c2ccnn2C)cc1 (stereo not drawn) [Example 172, N-[1-[[5-[3-(azetidine-1-carbonyl)-4-hydroxy-phenyl]-2-chloro-phenyl]methyl]-2-[4-(4-methyl-1,2,4-triazol-3-yl)anilino]-2-oxo-ethyl]-2-methyl-pyrazole-3-carboxamide] |
| 0.1 to 1 µM | Cn1cncc1-c1ccc(NC(=O)C(Cc2cc(-c3ccnc(N4CC[C@H](O)C4)c3)ccc2Cl)NC(=O)c2ccnn2C)cc1 (stereo partly drawn) [Example 191, N-[1-[[2-chloro-5-[2-[(3S)-3-hydroxypyrrolidin-1-yl]-4-pyridyl]phenyl]methyl]-2-[4-(3-methylimidazol-4-yl)anilino]-2-oxo-ethyl]-2-methyl-pyrazole-3-carboxamide] |
| 0.1 to 1 µM | Cc1ncn(C)c1-c1ccc(NC(=O)[C@H](Cc2cc(-c3cccc(C(C)(C)N)c3)ccc2Cl)NC(=O)c2ccnn2C)cc1 [Example 203, N-[(1S)-1-[[5-[3-(1-amino-1-methyl-ethyl)phenyl]-2-chloro-phenyl]methyl]-2-[4-(3,5-dimethylimidazol-4-yl)anilino]-2-oxo-ethyl]-2-methyl-pyrazole-3-carboxamide] |
| < 0.1 µM | Cc1cnn(C)c1-c1ccc(NC(=O)[C@H](Cc2cc(-c3ccc(=O)n(C(C)C)c3)ccc2Cl)NC(=O)C2(F)CCC2)cc1 [Example 331, N-[(1S)-1-[[2-chloro-5-(1-isopropyl-6-oxo-3-pyridyl)phenyl]methyl]-2-[4-(2,4-dimethylpyrazol-3-yl)anilino]-2-oxo-ethyl]-1-fluoro-cyclobutanecarboxamide] |
| 0.1 to 1 µM | Cn1cncc1-c1ccc(NC(=O)C(Cc2cc(-c3ccnc(N4CC(O)C4)c3)ccc2Cl)NC(=O)c2ccnn2C)cc1 (stereo not drawn) [Example 193, N-[1-[[2-chloro-5-[2-(3-hydroxyazetidin-1-yl)-4-pyridyl]phenyl]methyl]-2-[4-(3-methylimidazol-4-yl)anilino]-2-oxo-ethyl]-2-methyl-pyrazole-3-carboxamide] |
| > 1 µM | CC(C)n1cc(-c2ccc(Cl)c(C[C@H](NC(=O)OC(C)(C)C)C(=O)Nc3ccc(-c4nncn4C)cc3)c2)ccc1=O [Example 86, tert-butyl N-[(1S)-1-[[2-chloro-5-(1-isopropyl-6-oxo-3-pyridyl)phenyl]methyl]-2-[4-(4-methyl-1,2,4-triazol-3-yl)anilino]-2-oxo-ethyl]carbamate] |
| 0.1 to 1 µM | Cc1n[nH]cc1-c1ccc(NC(=O)[C@H](Cc2cc(-c3ccc(=O)n(C(C)C)c3)ccc2Cl)NC(=O)C2(F)CC2)cc1 [Example 136, N-[(1S)-1-[[2-chloro-5-(1-isopropyl-6-oxo-3-pyridyl)phenyl]methyl]-2-[4-(3-methyl-1H-pyrazol-4-yl)anilino]-2-oxo-ethyl]-1-fluoro-cyclopropanecarboxamide] |
| 0.1 to 1 µM | Cc1cnn(C)c1-c1ccc(NC(=O)[C@H](Cc2cc(-c3ccc(=O)n(C(C)C)c3)ccc2Cl)NC(=O)CC2CC2)cc1 [Example 336, (2S)-3-[2-chloro-5-(1-isopropyl-6-oxo-3-pyridyl)phenyl]-2-[(2-cyclopropylacetyl)amino]-N-[4-(2,4-dimethylpyrazol-3-yl)phenyl]propanamide] |
| 0.1 to 1 µM | Cc1cnn(C)c1-c1ccc(NC(=O)[C@H](Cc2cc(-c3ccc(=O)n(C(C)C)c3)ccc2Cl)NC(=O)c2cn[nH]c2)cc1 [Example 323, N-[(1S)-1-[[2-chloro-5-(1-isopropyl-6-oxo-3-pyridyl)phenyl]methyl]-2-[4-(2,4-dimethylpyrazol-3-yl)anilino]-2-oxo-ethyl]-1H-pyrazole-4-carboxamide] |
| > 1 µM | CC(C)n1cc(-c2ccc(Cl)c(CC(NC(=O)c3ccnn3C)C(=O)Nc3ccc(-c4nncn4C4CC4)cc3)c2)ccc1=O (stereo not drawn) [Example 72, N-[1-[[2-chloro-5-(1-isopropyl-6-oxo-3-pyridyl)phenyl]methyl]-2-[4-(4-cyclopropyl-1,2,4-triazol-3-yl)anilino]-2-oxo-ethyl]-2-methyl-pyrazole-3-carboxamide] |
| 0.1 to 1 µM | CCCC(=O)N[C@@H](Cc1cc(-c2ccc(=O)n(C(C)C)c2)ccc1Cl)C(=O)Nc1ccc(-c2c(C)cnn2C)cc1 [Example 330, N-[(1S)-1-[[2-chloro-5-(1-isopropyl-6-oxo-3-pyridyl)phenyl]methyl]-2-[4-(2,4-dimethylpyrazol-3-yl)anilino]-2-oxo-ethyl]butanamide] |

The remaining lines, values behind:

| SMILES | EC50 |
| --- | --- |
| Cc1n[nH]c(C)c1-c1ccc(NC(=O)[C@H](Cc2cc(-c3ccc(=O)n(C(C)C)c3)ccc2Cl)NC(=O)C2(F)CC2)cc1 [Example 137, N-[(1S)-1-[[2-chloro-5-(1-isopropyl-6-oxo-3-pyridyl)phenyl]methyl]-2-[4-(3,5-dimethyl-1H-pyrazol-4-yl)anilino]-2-oxo-ethyl]-1-fluoro-cyclopropanecarboxamide] | < 0.1 µM |
| Cn1cncc1-c1ccc(NC(=O)C(Cc2cc(-c3ccnc(N4CC5(COC5)C4)c3)ccc2Cl)NC(=O)c2ccnn2C)cc1 (stereo not drawn) [Example 183, N-[1-[[2-chloro-5-[2-(6-oxa-2-azaspiro[3.3]heptan-2-yl)-4-pyridyl]phenyl]methyl]-2-[4-(3-methylimidazol-4-yl)anilino]-2-oxo-ethyl]-2-methyl-pyrazole-3-carboxamide] | 0.1 to 1 µM |
| COc1cc(NC(=O)[C@H](Cc2cc(-c3ccc(=O)n(C(C)C)c3)ccc2Cl)NC(=O)c2conc2C)ccc1-c1ccnn1C [Example 70, N-[(1S)-1-[[2-chloro-5-(1-isopropyl-6-oxo-3-pyridyl)phenyl]methyl]-2-[3-methoxy-4-(2-methylpyrazol-3-yl)anilino]-2-oxo-ethyl]-3-methyl-isoxazole-4-carboxamide] | > 1 µM |
| Cc1n[nH]c(C)c1-c1ccc(NC(=O)[C@@H](NC(=O)c2ccnn2C)[C@@H]2CCc3ccc(-c4cnn(C5CC5)c4)cc32)cc1 [Example 8, N-[(1S)-1-[(1R)-6-(1-cyclopropylpyrazol-4-yl)indan-1-yl]-2-[4-(3,5-dimethyl-1H-pyrazol-4-yl)anilino]-2-oxo-ethyl]-2-methyl-pyrazole-3-carboxamide] | < 0.1 µM |
| Cc1n[nH]c(C)c1-c1ccc(NC(=O)[C@@H](NC(=O)C2(F)CC2)[C@@H]2CCCc3ccc(-c4cc(N5C[C@@H]6C[C@H]5CO6)ncn4)cc32)cc1 [Example 397, N-[(1S)-2-[4-(3,5-dimethyl-1H-pyrazol-4-yl)anilino]-1-[(1R)-7-[6-[(1S,4S)-2-oxa-5-azabicyclo[2.2.1]heptan-5-yl]pyrimidin-4-yl]tetralin-1-yl]-2-oxo-ethyl]-1-fluoro-cyclopropanecarboxamide] | < 0.1 µM |
| Cc1n[nH]c(C)c1-c1ccc(NC(=O)[C@@H](NC(=O)c2ccnn2C)[C@@H]2CCc3ccc(-c4cnn(C5CCC5)c4)cc32)cc1 [Example 5, N-[(1S)-1-[(1R)-6-(1-cyclobutylpyrazol-4-yl)indan-1-yl]-2-[4-(3,5-dimethyl-1H-pyrazol-4-yl)anilino]-2-oxo-ethyl]-2-methyl-pyrazole-3-carboxamide] | < 0.1 µM |
| CC(C)n1cc(-c2ccc3c(c2)[C@H]([C@H](NC(=O)OC2CC2)C(=O)Nc2ccc(-c4cncn4C)c(O)c2)CCC3)ccc1=O [Example 31, cyclopropyl N-[(1S)-2-[3-hydroxy-4-(3-methylimidazol-4-yl)anilino]-1-[(1R)-7-(1-isopropyl-6-oxo-3-pyridyl)tetralin-1-yl]-2-oxo-ethyl]carbamate] | < 0.1 µM |
| CC(C)Cn1cc(-c2ccc(Cl)c(C[C@H](NC(=O)OC3CC3)C(=O)Nc3ccc(-c4cncn4C)cc3)c2)nn1 [Example 214, cyclopropyl N-[(1S)-1-[[2-chloro-5-(1-isobutyltriazol-4-yl)phenyl]methyl]-2-[4-(3-methylimidazol-4-yl)anilino]-2-oxo-ethyl]carbamate] | > 1 µM |
| Cc1nccn1-c1ccc(NC(=O)[C@@H](NC(=O)C2(F)CC2)[C@@H]2CCCc3ccc(-c4ccnc(N5C[C@@H]6C[C@H]5CO6)c4)cc32)cc1 [Example 400, 1-fluoro-N-[(1S)-2-[4-(2-methylimidazol-1-yl)anilino]-1-[(1R)-7-[2-[(1S,4S)-2-oxa-5-azabicyclo[2.2.1]heptan-5-yl]-4-pyridyl]tetralin-1-yl]-2-oxo-ethyl]cyclopropanecarboxamide] | 0.1 to 1 µM |
| Cc1n[nH]c(C)c1-c1ccc(NC(=O)[C@@H](NC(=O)C2(F)CC2)[C@@H]2CCc3ccc(-c4ccnc(N5CC6(COC6)C5)c4)cc32)cc1 [Example 364, N-[(1S)-2-[4-(3,5-dimethyl-1H-pyrazol-4-yl)anilino]-1-[(1R)-6-[2-(6-oxa-2-azaspiro[3.3]heptan-2-yl)-4-pyridyl]indan-1-yl]-2-oxo-ethyl]-1-fluoro-cyclopropanecarboxamide] | < 0.1 µM |
| CC(C)n1cc(-c2ccc(Cl)c(C[C@H](NC(=O)C3(F)CC3)C(=O)Nc3ccc(-c4cncn4C)c(O)c3)c2)ccc1=O [Example 133, N-[(1S)-1-[[2-chloro-5-(1-isopropyl-6-oxo-3-pyridyl)phenyl]methyl]-2-[3-hydroxy-4-(3-methylimidazol-4-yl)anilino]-2-oxo-ethyl]-1-fluoro-cyclopropanecarboxamide] | 0.1 to 1 µM |
| Cc1cnn(C)c1-c1ccc(NC(=O)[C@@H](NC(=O)C2(F)CC2)[C@@H]2CCc3ccc(-c4cnnc(C5CC5)c4)cc32)cc1 [Example 385, N-[(1S)-1-[(1R)-6-(6-cyclopropylpyridazin-4-yl)indan-1-yl]-2-[4-(2,4-dimethylpyrazol-3-yl)anilino]-2-oxo-ethyl]-1-fluoro-cyclopropanecarboxamide] | 0.1 to 1 µM |
| Cc1ncn(C)c1-c1ccc(NC(=O)[C@@H](NC(=O)C2(F)CC2)[C@@H]2CCCc3ccc(-c4ccc5c(c4)CNC5)cc32)cc1 [Example 43, N-[(1S)-2-[4-(3,5-dimethylimidazol-4-yl)anilino]-1-[(1R)-7-isoindolin-5-yltetralin-1-yl]-2-oxo-ethyl]-1-fluoro-cyclopropanecarboxamide] | 0.1 to 1 µM |
